Legend:
Type in all cases: cell-based
mitochondrial potential = assay: TMRE staining of mitochondrial membrane potential in NCI-H522 cells; settings: during the death process
Description: (§1) FIGS. 3A-3C: The effect of compound 2 (10 μM) on tubulin and mitochondrial function. […] Arrowheads: two cells that have lost mitochondrial membrane potential; phase contrast indicates these are dead cells.
(§2) The effects of compound 2 on NCI-H522 cells, other cancer cells, and normal cell lines were evaluated. Compound 2 killed NCI-H522 cells at 10 μM. […] FIGS. 3A-3C show the effects of compound 2 on tubulin and mitochondrial function.

NCI-H522 cells = assay: lethality / cell viability of NCI-H522 cells; settings: for lethality / activity on NCI-H522 cell line: concentration not given
Description: FIGS. 5A-5C: The effect of compound 1f on NCI-H522 cells at 10 μM. […] Interval between images shown is 1 hour.
FIGS. 5A-5C show the effects of 1f on NCI-H522 cells at 10 μM.
The effects of compound 2 on NCI-H522 cells, other cancer cells, and normal cell lines were evaluated. […] FIGS. 3A-3C show the effects of compound 2 on tubulin and mitochondrial function.

tubulin = assay: cell staining with antibodies to tubulin in NCI-H522 cells; settings: in interphase or mitosis
Description: as §1, §2

Structure (SMILES)	mitochondrial membrane potentials (mitochondrial potential)	cell killing of NCI-H522 cells (NCI-H522 cells; 10 μM)	effects on tubulin (tubulin)	lethality / activity on NCI-H522 cell line (NCI-H522 cells)
C#Cc1nc(C2=C(C)[C@@H](O)CC2)cs1 [Compound 2]	intact until late in the death process	killed	no overt effects	–
C#Cc1nc(C2=C(C)C(=O)CC2)cs1 [Compound 3, 3-(2-ethynylthiazol-4-yl)-2-methylcyclopent-2-enone]	–	–	–	lethal
C#Cc1nc(C2=C(C)C(=O)C(Cc3ccccc3)C2)cs1 (centres unmarked) [Compound 4, 5-benzyl-3-(2-ethynylthiazol-4-yl)-2-methylcyclopent-2-enone]	–	–	–	did not compromise

From patent publication US10392354B2, “Highly selective anti-cancer agents targeting non-small cell lung cancer and other forms of cancer” (The University of Toledo, priority 2013, dated 2019)
